Data as given in ChEMBL document CHEMBL1201862, “PubChem BioAssay data set” (2004).
Entries after “also recorded” stand apart in the source; their conditions may differ. Activity calls are given as the source filed them.

Columns and labels:
[1] = MIN6 cell viability loss – mouse insulinoma, cytotoxicity control, dose response (AID 2122); format: functional;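 further: confirmatory high-throughput counterscreen run to flag cytotoxic compounds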
[2] = target: Intestinal-type alkaline phosphatase (Homo sapiens, UniProt P09923); test: inhibition of human intestinal alkaline phosphatase – biochemical, dose response (AID 488876); format: functional
Sequence of Intestinal-type alkaline phosphatase (Homo sapiens, UniProt P09923) (P09923 whole entry): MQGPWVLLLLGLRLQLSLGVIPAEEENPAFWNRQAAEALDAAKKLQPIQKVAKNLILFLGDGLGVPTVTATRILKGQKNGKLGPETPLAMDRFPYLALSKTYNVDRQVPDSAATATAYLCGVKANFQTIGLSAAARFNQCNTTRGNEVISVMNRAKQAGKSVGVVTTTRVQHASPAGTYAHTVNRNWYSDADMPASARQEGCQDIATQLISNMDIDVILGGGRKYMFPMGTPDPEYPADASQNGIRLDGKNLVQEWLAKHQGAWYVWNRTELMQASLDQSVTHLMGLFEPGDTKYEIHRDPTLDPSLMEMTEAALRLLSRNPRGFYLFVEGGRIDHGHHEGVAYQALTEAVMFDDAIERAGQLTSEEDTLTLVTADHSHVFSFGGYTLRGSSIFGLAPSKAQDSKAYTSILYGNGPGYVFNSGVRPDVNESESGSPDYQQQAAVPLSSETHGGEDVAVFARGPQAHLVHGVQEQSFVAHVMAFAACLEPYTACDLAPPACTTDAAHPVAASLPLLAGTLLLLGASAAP

[3] = target: T1, Alkaline phosphatase, tissue-nonspecific isozyme (Homo sapiens, UniProt P05186); test: TNAP enzyme inhibition by screening hits, dose response, selectivity assay for mouse IAP inhibitor project, biochemical, human TNAP, uHTS hits (AID 488906); format: functional
T1 sequence (P05186 whole entry): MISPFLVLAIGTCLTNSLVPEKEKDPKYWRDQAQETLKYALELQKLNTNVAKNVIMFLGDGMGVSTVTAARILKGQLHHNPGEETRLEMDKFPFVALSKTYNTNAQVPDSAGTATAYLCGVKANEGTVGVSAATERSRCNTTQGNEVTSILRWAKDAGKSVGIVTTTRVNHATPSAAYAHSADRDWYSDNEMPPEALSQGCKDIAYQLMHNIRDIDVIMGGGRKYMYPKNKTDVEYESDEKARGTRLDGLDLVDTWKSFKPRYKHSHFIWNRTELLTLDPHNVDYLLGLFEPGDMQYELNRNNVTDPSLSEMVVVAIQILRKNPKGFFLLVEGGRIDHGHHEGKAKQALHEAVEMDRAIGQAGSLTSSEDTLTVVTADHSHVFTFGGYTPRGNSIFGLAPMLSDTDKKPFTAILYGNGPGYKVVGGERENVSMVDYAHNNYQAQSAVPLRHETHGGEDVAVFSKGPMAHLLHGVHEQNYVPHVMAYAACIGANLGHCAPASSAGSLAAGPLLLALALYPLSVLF

[4] = HIV-1 Vif–A3G interaction blockers – biochemical, TR-FRET, GST-Vif 1-94, biotin-A3G peptide, dose response retest, primary screen (AID 1117319); format: functional;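 further: TR-FRET signal of purified GST-Vif binding a biotinylated A3G peptide; inhibitors lower the FRET signal by blocking Vif and A3G binding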
[5] = viability of HCT116 lacking mutant beta-catenin – cell-based, human colon tumor, dose response (AID 1045); format: functional;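 further: HCT116 colon tumor cells with beta catenin knocked out; cells exposed to compound for 60 hours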
[6] = decrease of insulin promoter-GFP reporter – imaging, high-content screening, mouse beta cells (AID 1628); format: functional; details: MIN6
[7] = viability loss in Vero cells – cytotoxicity control for Vif-APOBEC3G degradation inhibitor project, dose response (AID 1117358); format: functional; details: Vero
[8] = target: Intestinal-type alkaline phosphatase (Mus musculus, UniProt P24822); test: PubChem AID 488785; format: functional
Sequence of Intestinal-type alkaline phosphatase (Mus musculus, UniProt P24822) (P24822 whole entry): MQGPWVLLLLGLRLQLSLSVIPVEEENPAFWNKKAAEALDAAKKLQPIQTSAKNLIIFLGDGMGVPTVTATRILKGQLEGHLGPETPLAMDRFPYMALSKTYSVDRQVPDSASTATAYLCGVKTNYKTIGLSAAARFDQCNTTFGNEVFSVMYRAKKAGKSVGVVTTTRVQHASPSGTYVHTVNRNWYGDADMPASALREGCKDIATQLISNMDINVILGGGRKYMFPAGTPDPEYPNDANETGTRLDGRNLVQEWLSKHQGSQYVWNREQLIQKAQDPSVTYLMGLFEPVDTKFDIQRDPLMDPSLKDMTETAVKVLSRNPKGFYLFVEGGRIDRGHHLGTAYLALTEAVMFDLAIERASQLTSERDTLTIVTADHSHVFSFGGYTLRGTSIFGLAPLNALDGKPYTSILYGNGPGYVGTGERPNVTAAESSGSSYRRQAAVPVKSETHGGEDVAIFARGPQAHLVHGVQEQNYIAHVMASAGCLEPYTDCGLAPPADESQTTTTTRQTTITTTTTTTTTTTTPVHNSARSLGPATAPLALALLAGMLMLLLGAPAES

[9] = viability loss in THP-1 monocytes – THP-1 cells, cytotoxicity control for Vif-APOBEC3G degradation inhibitor project, dose response (AID 1117359); format: functional; details: THP-1
[10] = viability of PTEN-deleted HCT116 cells – cell-based, HCT116 PTEN knockout, dose response (AID 1047); format: functional;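 further: HCT116 colon tumor cells with PTEN knocked out; cells exposed to compound for 60 hours before readout; potency for loss of cell viability measured by luminescence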
[11] = target: T2, Histone-lysine N-methyltransferase NSD2 (Homo sapiens, UniProt O96028); format: biochemical
T2 sequence (O96028 whole entry): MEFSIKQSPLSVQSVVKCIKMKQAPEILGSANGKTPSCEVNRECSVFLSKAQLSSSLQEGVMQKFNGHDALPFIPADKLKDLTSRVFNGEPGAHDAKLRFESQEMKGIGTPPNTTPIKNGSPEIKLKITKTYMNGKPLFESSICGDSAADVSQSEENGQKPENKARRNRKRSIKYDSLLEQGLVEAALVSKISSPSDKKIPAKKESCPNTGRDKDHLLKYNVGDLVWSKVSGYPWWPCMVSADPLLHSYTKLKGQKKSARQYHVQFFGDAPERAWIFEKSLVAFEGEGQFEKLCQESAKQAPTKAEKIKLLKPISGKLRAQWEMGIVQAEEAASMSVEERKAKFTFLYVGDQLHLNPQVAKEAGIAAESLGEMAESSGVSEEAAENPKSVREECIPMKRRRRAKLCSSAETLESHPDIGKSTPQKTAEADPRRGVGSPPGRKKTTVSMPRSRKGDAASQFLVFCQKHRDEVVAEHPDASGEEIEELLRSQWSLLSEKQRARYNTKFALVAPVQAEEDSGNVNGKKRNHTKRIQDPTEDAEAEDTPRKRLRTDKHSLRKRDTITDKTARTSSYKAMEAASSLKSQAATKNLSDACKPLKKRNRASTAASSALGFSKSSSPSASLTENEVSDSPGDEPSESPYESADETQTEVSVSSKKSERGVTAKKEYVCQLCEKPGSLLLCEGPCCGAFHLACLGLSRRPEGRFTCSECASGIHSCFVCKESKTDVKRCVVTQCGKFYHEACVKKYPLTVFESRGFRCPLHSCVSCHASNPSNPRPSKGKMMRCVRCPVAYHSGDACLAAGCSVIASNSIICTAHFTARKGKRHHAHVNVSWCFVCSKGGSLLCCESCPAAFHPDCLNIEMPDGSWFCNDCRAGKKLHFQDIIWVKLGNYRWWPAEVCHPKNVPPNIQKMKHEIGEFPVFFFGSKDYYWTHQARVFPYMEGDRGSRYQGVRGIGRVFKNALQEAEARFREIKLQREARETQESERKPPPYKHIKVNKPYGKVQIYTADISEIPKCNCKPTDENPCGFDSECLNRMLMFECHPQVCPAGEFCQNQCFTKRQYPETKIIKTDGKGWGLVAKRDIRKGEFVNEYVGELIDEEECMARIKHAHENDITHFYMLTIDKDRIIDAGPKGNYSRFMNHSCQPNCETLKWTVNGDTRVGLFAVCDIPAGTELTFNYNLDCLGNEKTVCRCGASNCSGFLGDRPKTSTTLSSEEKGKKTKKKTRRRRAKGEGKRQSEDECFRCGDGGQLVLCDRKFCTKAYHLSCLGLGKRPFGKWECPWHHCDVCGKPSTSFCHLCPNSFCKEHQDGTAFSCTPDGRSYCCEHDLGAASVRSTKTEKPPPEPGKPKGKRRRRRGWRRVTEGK

[12] = suppression of NO production in INS-1E cells – cell-based, Griess absorbance, dry powder, set 3, dose response (AID 488870); format: functional; details: Rattus norvegicus
[13] = target: T3, Apoptotic protease-activating factor 1 (Homo sapiens, UniProt O14727); test: activation of Apaf-1 mediated apoptosis – fluorescent, uHTS hits, dose response (AID 588554); format: functional
T3 sequence (O14727 whole entry): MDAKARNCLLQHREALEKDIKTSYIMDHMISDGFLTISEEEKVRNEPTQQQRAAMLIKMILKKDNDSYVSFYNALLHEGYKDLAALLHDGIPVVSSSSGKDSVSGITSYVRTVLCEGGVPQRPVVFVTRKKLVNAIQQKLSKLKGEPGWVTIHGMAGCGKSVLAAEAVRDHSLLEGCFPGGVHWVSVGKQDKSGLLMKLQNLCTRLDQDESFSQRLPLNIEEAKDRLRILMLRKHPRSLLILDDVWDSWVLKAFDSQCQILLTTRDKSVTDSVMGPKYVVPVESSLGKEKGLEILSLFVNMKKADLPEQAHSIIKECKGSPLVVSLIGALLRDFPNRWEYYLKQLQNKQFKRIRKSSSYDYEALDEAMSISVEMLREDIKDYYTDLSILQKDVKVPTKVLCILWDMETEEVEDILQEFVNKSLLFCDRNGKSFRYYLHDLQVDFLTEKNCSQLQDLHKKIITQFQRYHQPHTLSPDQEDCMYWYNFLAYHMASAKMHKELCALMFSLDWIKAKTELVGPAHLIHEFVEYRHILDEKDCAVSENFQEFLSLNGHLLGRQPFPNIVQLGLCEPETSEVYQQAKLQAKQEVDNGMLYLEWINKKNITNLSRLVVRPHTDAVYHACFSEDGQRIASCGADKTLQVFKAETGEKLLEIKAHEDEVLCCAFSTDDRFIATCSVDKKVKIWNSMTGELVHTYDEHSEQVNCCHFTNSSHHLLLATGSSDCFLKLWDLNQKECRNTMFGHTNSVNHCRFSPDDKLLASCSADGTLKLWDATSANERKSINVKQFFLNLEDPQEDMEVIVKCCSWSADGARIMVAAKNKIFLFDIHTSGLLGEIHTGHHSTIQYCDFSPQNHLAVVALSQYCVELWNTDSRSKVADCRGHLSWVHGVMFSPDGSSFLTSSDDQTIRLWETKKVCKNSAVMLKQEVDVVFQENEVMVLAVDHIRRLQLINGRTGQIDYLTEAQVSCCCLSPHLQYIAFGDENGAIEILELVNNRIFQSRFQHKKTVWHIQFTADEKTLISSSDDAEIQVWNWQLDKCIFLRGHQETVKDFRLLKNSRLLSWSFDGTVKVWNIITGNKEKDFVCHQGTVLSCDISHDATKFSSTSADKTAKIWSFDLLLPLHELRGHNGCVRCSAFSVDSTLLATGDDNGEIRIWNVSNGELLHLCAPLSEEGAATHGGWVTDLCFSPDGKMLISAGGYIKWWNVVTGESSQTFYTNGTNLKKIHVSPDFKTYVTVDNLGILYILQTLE

[14] = target: 1-phosphatidylinositol 4,5-bisphosphate phosphodiesterase beta-3 (Homo sapiens, UniProt Q01970); test: Fluorescence-based biochemical high throughput dose response assay to identify inhibitors of phospholipase C isozymes (PLC-B3).
Sequence of 1-phosphatidylinositol 4,5-bisphosphate phosphodiesterase beta-3 (Q01970 whole entry): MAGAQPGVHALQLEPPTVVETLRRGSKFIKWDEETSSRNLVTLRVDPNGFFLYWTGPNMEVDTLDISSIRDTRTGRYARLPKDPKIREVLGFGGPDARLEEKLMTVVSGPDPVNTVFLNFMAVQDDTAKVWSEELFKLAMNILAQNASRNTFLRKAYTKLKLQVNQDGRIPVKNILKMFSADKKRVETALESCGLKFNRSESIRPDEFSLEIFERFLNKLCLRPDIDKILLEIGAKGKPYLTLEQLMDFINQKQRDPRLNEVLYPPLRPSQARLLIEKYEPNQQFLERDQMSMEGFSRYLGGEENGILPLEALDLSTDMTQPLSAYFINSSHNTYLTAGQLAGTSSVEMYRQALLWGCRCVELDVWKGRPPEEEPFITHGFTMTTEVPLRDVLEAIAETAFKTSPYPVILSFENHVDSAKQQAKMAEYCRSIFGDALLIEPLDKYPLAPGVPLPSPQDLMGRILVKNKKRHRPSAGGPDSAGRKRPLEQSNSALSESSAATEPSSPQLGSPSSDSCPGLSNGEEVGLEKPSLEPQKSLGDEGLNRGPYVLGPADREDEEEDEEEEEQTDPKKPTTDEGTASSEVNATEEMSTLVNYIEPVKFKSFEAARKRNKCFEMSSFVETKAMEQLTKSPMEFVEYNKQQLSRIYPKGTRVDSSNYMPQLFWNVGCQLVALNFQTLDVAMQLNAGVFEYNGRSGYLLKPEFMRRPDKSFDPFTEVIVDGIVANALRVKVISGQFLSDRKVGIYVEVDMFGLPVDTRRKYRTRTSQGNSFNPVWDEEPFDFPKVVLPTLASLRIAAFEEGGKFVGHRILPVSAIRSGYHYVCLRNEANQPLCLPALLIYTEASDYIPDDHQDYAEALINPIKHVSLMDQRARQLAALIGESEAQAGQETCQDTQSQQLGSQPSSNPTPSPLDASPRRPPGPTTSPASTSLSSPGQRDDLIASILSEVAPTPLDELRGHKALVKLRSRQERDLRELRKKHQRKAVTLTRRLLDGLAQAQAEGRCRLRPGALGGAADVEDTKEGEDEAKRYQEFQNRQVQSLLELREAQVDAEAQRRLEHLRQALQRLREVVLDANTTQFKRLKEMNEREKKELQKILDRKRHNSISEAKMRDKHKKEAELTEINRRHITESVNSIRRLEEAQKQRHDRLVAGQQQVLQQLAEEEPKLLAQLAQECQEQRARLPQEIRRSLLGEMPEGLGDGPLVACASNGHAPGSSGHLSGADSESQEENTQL

[15] = target: T4, Small ubiquitin-related modifier 1 (Homo sapiens, UniProt P63165); test: SUMO1 protein interaction blockers, potency – biochemical, fluorescence polarization, uHTS hits, dose response (AID 624382); format: functional; details: read-out: IC50_Mean
T4 sequence (P63165 whole entry): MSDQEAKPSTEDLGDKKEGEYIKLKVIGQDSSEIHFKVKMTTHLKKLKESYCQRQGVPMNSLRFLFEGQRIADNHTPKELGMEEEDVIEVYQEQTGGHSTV

[16] = target: NAD-dependent protein deacylase sirtuin-5, mitochondrial (Homo sapiens, UniProt Q9NXA8); test: sirtuin-5 deacylation blockers, concentration series – biochemical, fluorescence imaging, cherry-pick, set 5, dose response (AID 720591);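 further: desuccinylation of succinyl peptide AMC substrate read as fluorescence after trypsin release; potency of inhibitors that lower fluorescence and may act on trypsin instead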
Sequence of NAD-dependent protein deacylase sirtuin-5, mitochondrial (Q9NXA8 whole entry): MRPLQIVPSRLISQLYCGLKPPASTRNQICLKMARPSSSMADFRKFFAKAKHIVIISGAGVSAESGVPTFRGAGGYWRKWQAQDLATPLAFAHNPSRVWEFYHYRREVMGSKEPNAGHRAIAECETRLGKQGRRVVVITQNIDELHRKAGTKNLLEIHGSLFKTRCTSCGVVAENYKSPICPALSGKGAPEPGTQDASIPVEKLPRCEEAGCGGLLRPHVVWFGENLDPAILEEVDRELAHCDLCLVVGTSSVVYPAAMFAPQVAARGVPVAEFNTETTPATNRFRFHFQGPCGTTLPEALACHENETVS

[17] = target: 1-phosphatidylinositol 4,5-bisphosphate phosphodiesterase gamma-1 (Homo sapiens, UniProt P19174); test: Counterscreen for inhibitors of phospholipase C isozymes (PLC-B3): Fluorescence-based biochemical high throughput dose response assay to identify inhibitors of phospholipase C isozymes (PLC-gamma1).
Sequence of 1-phosphatidylinositol 4,5-bisphosphate phosphodiesterase gamma-1 (P19174 whole entry): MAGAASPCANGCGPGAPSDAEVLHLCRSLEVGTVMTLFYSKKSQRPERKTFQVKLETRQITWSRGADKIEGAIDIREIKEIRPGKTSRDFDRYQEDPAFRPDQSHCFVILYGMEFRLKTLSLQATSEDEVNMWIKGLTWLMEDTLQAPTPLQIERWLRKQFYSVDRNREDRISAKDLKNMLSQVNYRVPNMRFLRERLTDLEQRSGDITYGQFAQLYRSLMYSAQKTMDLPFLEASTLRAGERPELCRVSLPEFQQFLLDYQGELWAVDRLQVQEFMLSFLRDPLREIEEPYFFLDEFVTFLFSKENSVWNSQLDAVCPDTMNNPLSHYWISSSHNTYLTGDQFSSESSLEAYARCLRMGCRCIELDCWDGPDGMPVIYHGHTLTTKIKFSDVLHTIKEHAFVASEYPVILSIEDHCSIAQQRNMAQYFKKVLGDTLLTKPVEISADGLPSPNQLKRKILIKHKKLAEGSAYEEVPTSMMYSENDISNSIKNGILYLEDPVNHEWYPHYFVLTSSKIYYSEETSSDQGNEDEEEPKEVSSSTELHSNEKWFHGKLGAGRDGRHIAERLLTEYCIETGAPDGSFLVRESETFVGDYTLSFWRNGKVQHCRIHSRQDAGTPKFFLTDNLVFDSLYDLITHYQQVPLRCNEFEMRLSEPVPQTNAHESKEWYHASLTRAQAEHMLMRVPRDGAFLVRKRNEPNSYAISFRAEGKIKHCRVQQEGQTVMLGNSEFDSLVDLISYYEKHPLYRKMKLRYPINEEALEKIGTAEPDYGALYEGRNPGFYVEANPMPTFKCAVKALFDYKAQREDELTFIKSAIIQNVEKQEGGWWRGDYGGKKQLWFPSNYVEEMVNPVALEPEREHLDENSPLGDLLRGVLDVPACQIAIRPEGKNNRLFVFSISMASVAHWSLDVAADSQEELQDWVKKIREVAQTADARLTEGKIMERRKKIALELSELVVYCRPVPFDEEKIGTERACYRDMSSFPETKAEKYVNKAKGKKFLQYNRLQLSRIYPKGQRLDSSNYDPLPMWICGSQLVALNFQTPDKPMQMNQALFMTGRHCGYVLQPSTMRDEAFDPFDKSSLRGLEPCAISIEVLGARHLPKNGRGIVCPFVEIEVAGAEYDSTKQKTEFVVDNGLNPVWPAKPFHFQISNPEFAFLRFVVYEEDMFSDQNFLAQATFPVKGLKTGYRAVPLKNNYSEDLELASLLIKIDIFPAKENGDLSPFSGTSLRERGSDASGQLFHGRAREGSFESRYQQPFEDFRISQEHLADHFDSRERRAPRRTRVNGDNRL

[18] = target: T4, Small ubiquitin-related modifier 1; test: SUMO1 protein-protein binding blockers, potency – biochemical, FRET, dose response (AID 624383); format: functional; details: read-out: IC50_Mean
[19] = target: T5, Cytochrome P450 1A2 (Homo sapiens, UniProt P05177);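 further: PubChem cytochrome P450 panel assay, CYP1A2 panel member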
T5 sequence (P05177 whole entry): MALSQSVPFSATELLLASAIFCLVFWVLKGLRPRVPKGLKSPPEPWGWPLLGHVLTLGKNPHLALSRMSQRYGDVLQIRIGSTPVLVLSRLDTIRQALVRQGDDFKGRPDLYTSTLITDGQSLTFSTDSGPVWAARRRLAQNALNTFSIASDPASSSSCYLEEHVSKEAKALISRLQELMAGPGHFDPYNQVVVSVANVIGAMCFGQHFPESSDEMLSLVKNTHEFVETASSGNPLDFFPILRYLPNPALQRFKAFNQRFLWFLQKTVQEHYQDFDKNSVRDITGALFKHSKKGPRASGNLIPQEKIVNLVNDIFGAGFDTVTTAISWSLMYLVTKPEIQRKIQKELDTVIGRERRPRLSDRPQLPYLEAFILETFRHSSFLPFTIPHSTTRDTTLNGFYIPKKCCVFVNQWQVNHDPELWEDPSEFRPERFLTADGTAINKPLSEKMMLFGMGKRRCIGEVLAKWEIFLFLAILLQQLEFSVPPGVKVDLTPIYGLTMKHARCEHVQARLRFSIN

[20] = target: Cytochrome P450 2C19 (Homo sapiens, UniProt P33261); test: Cytochrome panel assay with activity outcomes. Panel member name: p450-cyp2c19 Compounds with AC50 equal or less than 10 uM are considered active; format: functional
Sequence of Cytochrome P450 2C19 (P33261 whole entry): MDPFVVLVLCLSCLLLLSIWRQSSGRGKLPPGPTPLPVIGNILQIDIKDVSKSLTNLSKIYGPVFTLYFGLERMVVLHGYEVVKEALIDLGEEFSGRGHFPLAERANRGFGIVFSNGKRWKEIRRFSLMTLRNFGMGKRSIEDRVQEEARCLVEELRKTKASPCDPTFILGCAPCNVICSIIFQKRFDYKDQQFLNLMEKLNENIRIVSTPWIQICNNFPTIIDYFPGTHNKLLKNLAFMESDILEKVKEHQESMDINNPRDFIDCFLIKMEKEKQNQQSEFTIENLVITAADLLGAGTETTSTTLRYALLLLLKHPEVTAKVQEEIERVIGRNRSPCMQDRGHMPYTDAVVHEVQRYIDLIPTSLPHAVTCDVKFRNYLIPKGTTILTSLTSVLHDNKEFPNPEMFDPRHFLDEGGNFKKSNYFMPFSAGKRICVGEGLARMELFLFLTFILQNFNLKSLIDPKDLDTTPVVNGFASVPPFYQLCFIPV

[21] = target: Cytochrome P450 2D6 (Homo sapiens, UniProt P10635);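 further: CYP2D6 member of a cytochrome P450 panel assay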
Sequence of Cytochrome P450 2D6 (P10635 whole entry): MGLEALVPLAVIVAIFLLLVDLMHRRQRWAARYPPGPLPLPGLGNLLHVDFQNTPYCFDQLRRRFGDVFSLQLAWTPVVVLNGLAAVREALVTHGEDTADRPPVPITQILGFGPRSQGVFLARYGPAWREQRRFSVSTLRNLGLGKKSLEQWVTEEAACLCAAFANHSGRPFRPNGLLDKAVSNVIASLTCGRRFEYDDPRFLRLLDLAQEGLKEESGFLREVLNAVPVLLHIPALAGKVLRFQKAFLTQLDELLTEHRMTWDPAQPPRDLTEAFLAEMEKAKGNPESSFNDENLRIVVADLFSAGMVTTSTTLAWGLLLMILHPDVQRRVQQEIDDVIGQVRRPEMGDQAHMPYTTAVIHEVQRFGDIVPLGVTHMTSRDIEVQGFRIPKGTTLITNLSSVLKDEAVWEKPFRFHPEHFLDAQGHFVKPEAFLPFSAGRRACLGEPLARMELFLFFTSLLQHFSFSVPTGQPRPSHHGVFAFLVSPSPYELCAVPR

Cc1cccnc1Nc1nc(-c2ccc(O)c(O)c2)cs1
active: IC50 [1] 9.5 µM | IC50 [4] > 51.1 µM | EC50 [5] 13.6 µM | IC50 [6] 8.95 µM | CC50 [7] > 40 µM | IC50 [8] 4.03 µM | CC50 [9] 21.2 µM | EC50 [10] 13.3 µM
inactive: IC50 [2] > 100 µM | IC50 [3] > 100 µM | AC50 [11] > 20 µM

C[C@@H]1CN([C@@H](C)CO)C(=O)c2cccc(NC(=O)Nc3cccc4ccccc34)c2O[C@H]1CN(C)C(=O)Nc1ccc(C(F)(F)F)cc1
active: AC50 [12] 40.7 µM

C=CC1=C(C(=O)O)N2C(=O)[C@@H](NC(=O)/C(=N\OCC(=O)O)c3csc(N)n3)[C@H]2SC1 [CEFIXIME]
active: EC50 [13] 9.08 µM | AC50 [16] 17.9 µM | IC50 [17] 1.21 µM | IC50 [18] 1.48 µM
inactive: IC50 [14] > 122 µM | IC50 [15] > 66.6 µM

Nc1ccc(S(=O)(=O)Nc2ccnn2-c2ccccc2)cc1 [SULFAPHENAZOLE]
inactive; also recorded: inconclusive: AC50 [20]
inactive: AC50 [19] | AC50 [21]
